Data on one substance can be found in paper PMC8167799, “Discovery and Characterization of the Biflavones From Ginkgo biloba as Highly Specific and Potent Inhibitors Against Human Carboxylesterase 2” (Frontiers in Pharmacology, 2021).

In this test the target is T1, CES2 (Homo sapiens, UniProt O00748).
T1 construct: tissue Bioreclamation IVT; […]
T1 sequence (O00748 27-559): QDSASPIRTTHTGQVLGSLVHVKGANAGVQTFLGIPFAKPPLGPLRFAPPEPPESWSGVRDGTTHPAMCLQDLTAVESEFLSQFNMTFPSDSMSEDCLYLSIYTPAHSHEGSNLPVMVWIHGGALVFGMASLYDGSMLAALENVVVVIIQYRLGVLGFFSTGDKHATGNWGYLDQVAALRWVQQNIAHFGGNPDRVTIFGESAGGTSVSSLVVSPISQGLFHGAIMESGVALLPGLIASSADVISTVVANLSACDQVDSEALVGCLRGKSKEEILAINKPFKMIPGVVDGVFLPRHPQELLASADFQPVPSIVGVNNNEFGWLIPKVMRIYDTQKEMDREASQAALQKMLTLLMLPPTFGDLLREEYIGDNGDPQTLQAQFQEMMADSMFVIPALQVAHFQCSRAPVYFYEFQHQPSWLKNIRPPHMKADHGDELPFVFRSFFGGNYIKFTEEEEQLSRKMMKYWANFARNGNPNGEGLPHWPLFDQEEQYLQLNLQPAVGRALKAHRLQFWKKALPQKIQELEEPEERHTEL
Description: Inhibition of CES2-catalyzed FD hydrolysis in HLMs. The class given is biochemical. As to conditions: FD as probe substrate, logarithm of IC50 in nM. Here is the method:
The incubation system contains following components (total volume 200 μL): 2 μL DMSO/inhibitor, 2 μL HLMs (2 μg/ml, final concentration), […] buffer PBS (pH = =7.4).

As for Quinatic acid, the “CES2 lg (IC50/nM)” value amounted to 3.72 ± 0.10.
